Here are results for seven compounds from patent US20190321311A1, “Cancer Treatment by Simultaneous Targeting Energy Metabolism and Intracellular pH” (Deutsches Krebsforschungszentrum, priority 2016, published 2019).

Data set [1] has as its system Mouse melanoma B16F10. The data set is described as follows: Cell viability assay, CellTiter-Glo, B16F10. How it is done: (§1) Indicated cells were treated with indicated drug combinations for 48 h or as indicated in conditions imitating tumor environment—RPMI supplemented with 10% FCS and 20 mM PIPES, adjusted to pH 6.5. After treatment, cells were analyzed for cell viability: • using CellTiter-Blue® Cell Viability Assay, Promega according to manufacturer recommendations. For each treatment, the fraction (%) of viable cells are indicated. Untreated viable cells were set to 100%. Average data of 2 independent experiments are presented. Each independent experiment contained 4 biological replicates for each condition. • using CellTiter-Glo® Cell Viability Assay, Promega according manufacturer recommendations. For each treatment the fraction (%) of viable cells are indicated. Untreated viable cells were set to 100%. Each measurement represents the mean value of 4 biological replicates for each condition.
Background: Cellular ATP, detected with luciferase, serves as a proxy for viable cell number.

In data set [2] the test system is Lung cancer H1975 cells. The data set is described as follows: Cell viability assay, CellTiter-Blue, H1975. To be noted: Homo sapiens, NCI-H1975, 48 h, pH 6.5, read-out: fraction (%) of viable cells. As to the method:
as §1
On the technique in general: The colour change of resazurin is a common sign of viable cells or microbes.

In data set [3] the test system is Breast cancer MDA-MB-231 cells. The data set is described as follows: Cell viability assay, CellTiter-Blue, MDA-MB-231. To be noted: Homo sapiens, MDA-MB-231, 48 h, pH 6.5, read-out: fraction (%) of viable cells. As to the method: as §1
The test system of data set [4] is Colon cancer DLD1 cells. The data set is described as follows: Cell viability assay, CellTiter-Glo, DLD1. How it is done: as §1
For data set [5], the system named is Melanoma A375 cells. The data set is described as follows: Cell viability assay, CellTiter-Glo, A375. The conditions noted are these: Homo sapiens, A-375, 48 h, pH 6.5, read-out: fraction (%) of viable cells. How it is done:
as §1

The test system of data set [6] is Prostate cancer PC3 cells. The data set is described as follows: Cell viability assay, CellTiter-Glo, PC3. To be noted: Homo sapiens, PC-3, 48 h, pH 6.5, read-out: fraction (%) of viable cells. How it is done:
as §1

Data set [7] has as its system Pancreas cancer Bxpc3 cells. The data set is described as follows: Cell viability assay, CellTiter-Glo, Bxpc3. To be noted: Homo sapiens, BXPC-3, 48 h, pH 6.5, read-out: fraction (%) of viable cells. As to the method:
as §1

In data set [8] the test system is Colon cancer DLD1 cells. The data set is described as follows: Cell viability assay, CellTiter-Blue, DLD1. To be noted: Homo sapiens, DLD-1, 72 h, pH 6.5, read-out: fraction (%) of viable cells. As to the method:
as §1

For data set [9], the system named is Lung cancer H1975. The data set is described as follows: Cell viability assay, CellTiter-Glo, H1975. The conditions noted are these: Homo sapiens, NCI-H1975, 72 h, pH 6.5, read-out: fraction (%) of viable cells. How it is done: as §1
Where [10] appears, read: Homo sapiens, DLD-1, 72 h, pH 6.5, read-out: fraction (%) of viable cells.

Where two headings read alike, the source gives them in different places.

For the compound `CO[C@@H]1[C@@H](OC)[C@H](C)[C@@](O)(CC(=O)O)O[C@H]1[C@H](C)[C@H]1O[C@@]2(CC[C@@](C)([C@H]3CC[C@@](C)([C@@H]4O[C@@H]([C@H]5O[C@](C)(O)[C@H](C)C[C@@H]5C)C[C@@H]4O[C@@H]4C[C@H](OC)[C@@H](OC)[C@H](C)O4)O3)O2)C[C@H](O)[C@H]1C` [Maduramicin], in [1] (Mus musculus, B16-F10, 48 h, pH 6.5, read-out: fraction (%) of viable cells, Maduramicin 4.00 nM, Phenformin 0.00 μM, pH 6.5), the viability at 0.004 µM amounted to 111%.

As for `[H]/N=C(/N)N/C(=N/[H])NCCc1ccccc1` [Phenformin], the viability at 4 µM in data set [1] (Mus musculus, B16-F10, 48 h, pH 6.5, read-out: fraction (%) of viable cells, Phenformin 4 μM, Maduramicin 0.00 nM, pH 6.5 (Table 12)) turned out to be 82%; in data set [1] (Mus musculus, B16-F10, 48 h, pH 6.5, read-out: fraction (%) of viable cells, Phenformin 4 μM, Monensin 0.00 nM, pH 6.5 (Table 11)), 82%. Further, the viability at 8 µM in data set [1] (Mus musculus, B16-F10, 48 h, pH 6.5, read-out: fraction (%) of viable cells, Phenformin 8 μM, Maduramicin 0.00 nM, pH 6.5 (Table 12)) turned out to be 76%; in [1] (Mus musculus, B16-F10, 48 h, pH 6.5, read-out: fraction (%) of viable cells, Phenformin 8 μM, Monensin 0.00 nM, pH 6.5 (Table 11)), 76%. For the same compound, the viability at 16 µM in data set [1] (Mus musculus, B16-F10, 48 h, pH 6.5, read-out: fraction (%) of viable cells, Phenformin 16 μM, Maduramicin 0.00 nM, pH 6.5 (Table 12)) came out at 56%; in [1] (Mus musculus, B16-F10, 48 h, pH 6.5, read-out: fraction (%) of viable cells, Phenformin 16 μM, Monensin 0.00 nM, pH 6.5 (Table 11)), 56%.

Turning to `CO[C@@H]1C[C@@H](C[C@H]2CC[C@H](C)[C@H]([C@@H](C)C(=O)O)O2)O[C@]2(O[C@](C)([C@H]3CC[C@@](C)([C@@H]4O[C@@H]([C@H]5O[C@@](O)(CO)[C@H](C)C[C@@H]5C)C[C@@H]4C)O3)C[C@H]2C)[C@@H]1C` [Nigericin], the viability at 0.0025 µM in data set [2] is 93%; in [3], 98%; in data set [5] it was 7%. For the same compound, the viability at 0.005 µM in data set [2] came to 95%; in data set [3], 101%; in [4] (setting [10]) it was 107%; in [6] it was 31%; in data set [7], 39%. Moreover, the viability at 0.01 µM in data set [4] (setting [10]) amounted to 103%; in data set [6] it was 0%; in [7], 35%. For the same compound, the viability at 0.00125 µM in data set [5] was found to be 58%.

As for `C=C(C)[C@H]1Cc2c(ccc3c2O[C@@H]2COc4cc(OC)c(OC)cc4[C@@H]2C3=O)O1` [Rotenone], the viability at 0.0025 µM in data set [2] worked out at 103%; in data set [3], 98%; in [5], 91%. The viability at 0.005 µM in data set [2] was 104%; in data set [3], 102%; in data set [4] (setting [10]), 96%; in data set [5], 75%; in data set [6], 45%; in data set [7], 104%. For the same compound, the viability at 0.005 µM in data set [8] turned out to be 87%. The viability at 0.01 µM in data set [2] amounted to 110%; in data set [3], 99%; in data set [4] (setting [10]) it was 89%; in data set [6] it was 4%; in [7] it was 89%. Besides, the viability at 0.02 µM is 84% in data set [2]; 81% in data set [3]; 67% in [4] (setting [10]); 1% in data set [6]; 59% in data set [7]. For the same compound, in [5], the viability at 0.00125 µM amounted to 96%.

Take `C=C[C@@]1(C)CC(=O)[C@]2(O)[C@@]3(C)[C@@H](O)CCC(C)(C)[C@@H]3[C@H](O)[C@H](OC(C)=O)[C@@]2(C)O1` [Forskolin, forskolin]: the viability at 10 µM in [1] (Mus musculus, B16-F10, 48 h, pH 6.5, read-out: relative values of cell viability, Forskolin 10 μM alone, pH 6.5) amounted to 78%.

As for `CC[C@@]1([C@@H]2O[C@@H]([C@H]3O[C@@](O)(CO)[C@H](C)C[C@@H]3C)C[C@@H]2C)CC[C@H]([C@]2(C)CC[C@]3(C[C@H](O)[C@@H](C)[C@@H]([C@@H](C)[C@@H](OC)[C@H](C)C(=O)O)O3)O2)O1` [Monensin], the “fraction (%) of viable cells” value in [4] (human, 72 h, 5 nM, pH 6.5) was found to be 112%. The viability at 0.005 µM in [8] turned out to be 88%; in data set [9] it was 55%. For the same compound, the viability at 0.01 µM in data set [8] came out at 72%. Besides, the viability at 0.02 µM in data set [8] was 55%. Besides, the viability at 0.004 µM is 111% in [1] (Mus musculus, B16-F10, 48 h, pH 6.5, read-out: fraction (%) of viable cells, Monensin 4.00 nM, Metformin 0.00 μM, pH 6.5) and 95% in data set [1] (Mus musculus, B16-F10, 48 h, pH 6.5, read-out: fraction (%) of viable cells, Monensin 4.00 nM, Phenformin 0.00 μM, pH 6.5).

Turning to `Nc1ncnc2c1nc(Sc1ccc(Cl)cc1)n2[C@@H]1O[C@@H]2COP(=O)([O-])O[C@H]2[C@H]1O.[Na+]` [8-CPT-cAMP, 8-(4-Chlorophenylthio)-adenosine-3′,5′-cyclic monophosphate], in [1] (8-CPT-cAMP 100 μM alone, 48 h, pH 6.5), the “relative values of cell viability” value was determined as 86%.
